Measurements from patent US6784175B2, “Use of substituted 1-amino-5-phenylpentane-3-ol and/or 1-amino-6-phenylhexane-3-ol compounds as medicaments” (Gruenenthal GmbH, priority 2000, dated 2004).
pKi: −log10 of the molar value. Counter-ions that a name gives are not always drawn.

Key:
[1] = system: (+)-MK801 binding site of the ionotropic NMDA receptor; test: (3H)-(+)-MK801 receptor bonding test on rat cerebral membrane homogenates; conditions: 1 nmol/l (3H)-(+)-MK801, rat brain membrane homogenate; for Percentage inhibition of (3H)-(+)-MK801 binding at 10 μM: 10 μmol/l compound, triple determinations; for pKi: calculated from IC50 by Cheng-Prusoff equation
Description: Research to determine the NMDA antagonistic effect of each compound in general formula I was carried out on cerebral membrane homogenates (homogenate of rat brain without cerebellum, pons and medulla oblongata taken from male Wistar rats (Charles River, Sulzfeld, Germany)).
For this purpose, after separating the cerebellum, pons and medulla oblongata, freshly prepared rat brains were macerated in 50 mmol/l of tris/HCl (pH 7.7) with a Polytron homogeniser (model PT3000, Kinematika AG, Littau, Switzerland) at 6000 revolutions per minute (rpm) for 1 minute with ice cooling and centrifuged for 15 minutes at 4° C. and 60,000 g. After decanting and discarding the supernatant, again placing in 50 mmol/l of tris/HCl (pH 7.7) and macerating the membrane pellet with a homogeniser at 2000 rpm for 1 minute, it was centrifuged again for 15 minutes at 4° C. and 60,000 g. The supernatant was again discarding and the membrane pellet homogenised (2000 rpm for 1 minute) in 50 mmol/l of tris/HCl (pH 7.7) and frozen in aliquots at −70° C.
For the receptor bonding test, each aliquot was defrosted and then centrifuged for 15 minutes at 4° C. and 60,000 g. After decanting and discarding the supernatant, the membrane pellet was taken up with bonding test buffer and homogenised (2000 rpm for 1 minute). The bonding test buffer was 5 mmol/l tris/HCl (pH 7.7) supplemented with 30 μmol/l of glycine and 100 μmol/l of glutamic acid.
1 nmol/l of (^3H)-(+)-MK801 ((5R, 10S)-(+)-5-methyl-10,11-dihydro-5H-dibenzo(a,d)cycloheptane-5,10-imine was used as a radioactively marked ligand (NET-972, NEN, Cologne Germany). The proportion of unspecific bonding was determined in the presence of 10 μmol/l of non-radioactively marked (+)-MK801 (RBI/Sigma, Deisenhofen, Germany). In further batches, each of the compounds of general formula I were added in series of concentrations and the displacement of the radioactive ligand out of its specific bond to the NMDA receptor determined. All the batches were subjected to triple determinations. The batches were each incubated for 40 minutes at 25° C. in a water bath and then harvested for determination of the radioactive ligand bound to the cerebral membrane homogenate by means of filtration through glass-fibre filters (GF/B) (Whatman GF/B, Hassel, Munich, Germany). The radioactivity retained by the glass-fibre filter discs was measured in a β counter (Packard TRI-CARB Liquid Scintillation Analyser 2000CA, Packard Instrument, Meriden, Conn. 06450, USA) after adding a scintillator (“Ready Protein” scintillator, Beckmann Coulter GmhH, Krefeld, Germany).
The percentage inhibition of the specific bonding of the ligand (^3H)-(+)-MK801 in the presence of 10 μmol/l of each compound of general formula I resulting from the triple batches is used as a measure of the affinity of the compound for the (+)-MK801 binding site of the ionotropic NMDA receptor. From batches with concentration series of these compounds of general formula I, the IC50 values (concentration of substituted compounds with 50% displacement of radioactive ligand out of its specific bond) were calculated in accordance with the law of mass action using non-linear regression. From these IC50 values, the Kj values were calculated in accordance with the Cheng-Prusoff equation (Y. Cheng, W. H. Prusoff, 1973, Biochem. Pharmacol., 22, pp 3099-3108).

SMILES	Percentage inhibition of (3H)-(+)-MK801 binding at 10 μM [1]	pKi [1]	melting point	pKi ([1]; hydrochloride)	Percentage inhibition of (3H)-(+)-MK801 binding at 10 μM ([1]; hydrochloride, 10 µM)
CN(C)C(c1ccccc1)C1CCCCC1(O)CCCc1ccccc1.Cl (stereo not shown) [Example 6, 2-(dimethylaminophenylmethyl)-1-(3-phenylpropyl)cyclohexanol, hydrochloride]	74%	5.59	90 °C	–	–
CN(C)C(c1ccccc1)C1CCCCC1(O)CCc1ccccc1Cl.Cl (stereo not shown) [Example 12, 1-[2-(2-chlorophenyl)ethyl]-2-(dimethylaminophenylmethyl)cyclohexanol, hydrochloride]	85%	5.82	152 °C	–	–
CN(C)C(c1ccccc1)C1CCCCC1(O)CCc1ccccc1F.Cl (stereo not shown) [Example 7, 2-(dimethylaminophenylmethyl)-1-[2-(2-fluorophenyl)ethyl]cyclohexanol, hydrochloride]	91%	5.96	95 °C	–	–
CN(C)C(c1ccccc1F)C1CCCCC1(O)CCc1ccccc1Cl.Cl (stereo not shown) [Example 19, 1-[2-(2-chlorophenyl)ethyl]-2-(dimethylamino-(2-fluorophenyl)methyl]cyclohexanol, hydrochloride]	102%	6.10	213 °C	–	–
CN(C)C(c1ccccc1F)C1CCCCC1(O)CCc1ccccc1.Cl (stereo not shown) [Example 8, 2-[dimethylamino-(2-fluorophenyl)methyl]-1-phenethylcyclohexanol, hydrochloride]	91%	5.80	172 to 174 °C	–	–
Cc1ccccc1C(C1CCCCC1(O)CCc1ccccc1)N(C)C.Cl (stereo not shown) [Example 5, 2-(dimethylamino-o-tolylmethyl)-1-phenethylcyclohexanol, hydrochloride]	93%	5.89	187 to 188 °C	–	–
Cl.OC1(CCc2ccccc2)CCCCC1C(c1ccccc1)N1CCCCC1 (stereo not shown) [Example 14, 1-phenethyl-2-(phenylpiperidine-1-yl-methyl)cyclohexanol, hydrochloride]	88%	5.55	127 °C	–	–
CN(C)C(c1ccccc1Cl)C1CCCCC1(O)CCc1cccc(F)c1.Cl (stereo not shown) [Example 11, 2-[(2-chlorophenyl)dimethylaminomethyl]-1-[2-(3-fluorophenyl)ethyl]cyclohexanol, hydrochloride]	93%	5.68	120 to 126 °C	–	–
Cc1ccccc1C(C1CCCCC1(O)CCc1ccccc1Cl)N1CCCC1.Cl (stereo not shown) [Example 23, 1-[2-(2-chlorophenyl)ethyl]-2-(pyrrolidine-1-yl-o-tolylmethyl)cyclohexanol, hydrochloride]	101%	6.40	155 °C	–	–
COc1cccc(C(C2CCCCC2(O)CCc2ccccc2)N(C)C)c1.Cl (stereo not shown) [Example 4, 2-[dimethylamino-(3-methoxyphenyl)methyl]-1-phenethylcyclohexanol, hydrochloride]	51%	5.21	90 °C	–	–
Cc1ccccc1C(C1CCCCC1(O)CCc1ccccc1Cl)N(C)C.Cl (stereo not shown) [Example 15, 1-[2-(2-chlorophenyl)ethyl]-2-(dimethylamino-o-tolylmethyl)cyclohexanol, hydrochloride]	100%	–	190 to 194 °C	6.15	–
CN(C)C(c1ccccc1Cl)C1CCCCC1(O)CCc1ccccc1.Cl (stereo not shown) [Example 2, 2-[(2-chlorophenyl)dimethylaminomethyl]-1-phenethylcyclohexanol, hydrochloride]	95%	5.77	110 °C	–	–
CN(C)C(c1ccc(F)cc1Cl)C1CCCCC1(O)CCc1ccccc1Cl.Cl (stereo not shown) [Example 42, 2-[(2-chloro4-fluorophenyl)dimethylaminomethyl]-1-[2-(2-chlorophenyl)ethyl]cyclohexanol, hydrochloride]	85%	5.70	–	–	–
Cc1ccccc1C(C1CCCCC1(O)CCc1ccc(F)cc1)N(C)C.Cl (stereo not shown) [Example 18, 2-(dimethylamino-o-tolylmethyl)-1-[2-(4-fluorophenyl)ethyl]cyclohexanol, hydrochloride]	54%	5.21	–	–	–
Cc1ccccc1C(C1CCCCC1(O)CCc1cccc(Cl)c1)N(C)C.Cl (stereo not shown) [Example 16, 1-[2-(3-chlorophenyl)ethyl]-2-(dimethylamino-o-tolylmethyl)cyclohexanol, hydrochloride]	–	–	–	5.72	92%
CN(C)C(c1ccccc1Cl)C1CCCCC1(O)CCc1ccc(F)cc1.Cl (stereo not shown) [Example 9, 2-[(2-chlorophenyl)dimethylaminomethyl]-1-[2-(4-fluorophenyl)ethyl]cyclohexanol, hydrochloride]	67%	5.42	170 °C	–	–
CN(C)C(c1ccccc1Br)C1CCCCC1(O)CCCc1ccccc1.Cl (stereo not shown) [Example 40, 2-[(2-bromophenyl)dimethylaminomethyl]-1-(3-phenylpropyl)cyclohexanol, hydrochloride]	82%	5.72	–	–	–
Cc1ccccc1C(C1CCCCC1(O)CCc1ccccc1Cl)N(C)C (single isomer, unassigned; (-)) [Example 48, (−)-15-1-[2-(2-chlorophenyl)ethyl]-2-(dimethylamino-o-tolylmethylcyclohexanol), hydrochloride]	–	–	–	6.40	99%
Cc1ccccc1CCC1(O)CCCCC1C(c1ccccc1Br)N(C)C.Cl (stereo not shown) [Example 38, 2-[(2-bromophenyl)dimethylaminomethyl]-1-(2-o-tolylethyl)cyclohexanol, hydrochloride]	93%	5.64	–	–	–
CN(C)C(c1ccccc1Cl)C1CCCCC1(O)CCc1ccccc1F.Cl (single isomer, unassigned; (+)) [Example 53, (+)-2-[(2-chlorophenyl)dimethylaminomethyl]-1-[2-(2-fluorophenyl)ethyl]cyclohexanol, hydrochloride]	–	–	–	6.30	104%
Cc1ccccc1CCC1(O)CCCCC1C(c1ccccc1)N(C)C.Cl (stereo not shown) [Example 37, 2-(dimethylaminophenylmethyl)-1-(2-o-tolylethyl)cyclohexanol, hydrochloride]	77%	5.74	–	–	–
CN(C)C(c1ccccc1Cl)C1CCCCC1(O)CCc1ccccc1F.Cl (single isomer, unassigned; (-)) [Example 52, (−)-2-[(2-chlorophenyl)dimethylaminomethyl]-1-[2-(2-fluorophenyl)ethyl]cyclohexanol, hydrochloride]	–	–	–	6.70	105%
CN(C)C(c1cccc(F)c1)C1CCCCC1(O)CCc1ccccc1Cl.Cl (stereo not shown) [Example 22, 1-[2-(2-chlorophenyl)ethyl]-2-(dimethylamino-(3-fluorophenyl)methyl]cyclohexanol, hydrochloride]	74%	5.52	–	–	–
Cc1ccccc1C(C1CCCCC1(O)CCc1ccccc1F)N(C)C.Cl (stereo not shown) [Example 30, 2-(dimethylamino-o-tolylmethyl)-1-[2-(2-fluorophenyl)ethyl]cyclohexanol, hydrochloride]	105%	6.52	–	–	–
